Experimental data from PubChem BioAssay (NCI).
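How tested: cells in 96-well plates exposed to compound for 48 hours at five concentrations. GI50 marks 50% less growth. At the TGI there is no net growth.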

Key:
Assay in all cases: growth of human tumour cells (NCI), 48 h
RXF 393 renal = system: RXF 393 renal
CAKI-1 renal = system: CAKI-1 renal
NCI-H522 lung = system: NCI-H522 lung
SW-620 colon = system: SW-620 colon
NCI-H226 lung = system: NCI-H226 lung
A549 NSCLC = system: A549 NSCLC
OVCAR-3 ovarian = system: OVCAR-3 ovarian
T-47D breast = system: T-47D breast
RPMI-8226 leukemia = system: RPMI-8226 leukemia
SF-295 CNS = system: SF-295 CNS
KM12 colon = system: KM12 colon
M14 melanoma = system: M14 melanoma
IGROV1 ovarian = system: IGROV1 ovarian
SNB-19 CNS = system: SNB-19 CNS
TK-10 renal = system: TK-10 renal
U251 CNS = system: U251 CNS
OVCAR-8 ovarian = system: OVCAR-8 ovarian
SR leukemia = system: SR leukemia
SK-OV-3 ovarian = system: SK-OV-3 ovarian
HT29 colon = system: HT29 colon
UACC-62 melanoma = system: UACC-62 melanoma
BT-549 breast = system: BT-549 breast
786-0 renal = system: 786-0 renal
HCC-2998 colon = system: HCC-2998 colon
SNB-75 CNS = system: SNB-75 CNS
MDA-MB-231 breast = system: MDA-MB-231 breast
HCT-15 colon = system: HCT-15 colon
HOP-62 NSCLC = system: HOP-62 NSCLC
OVCAR-4 ovarian = system: OVCAR-4 ovarian
SK-MEL-5 melanoma = system: SK-MEL-5 melanoma
COLO 205 colon = system: COLO 205 colon
CCRF-CEM leukemia = system: CCRF-CEM leukemia
PC-3 prostate = system: PC-3 prostate
UACC-257 melanoma = system: UACC-257 melanoma
ACHN renal = system: ACHN renal
SN12C renal = system: SN12C renal
SK-MEL-28 melanoma = system: SK-MEL-28 melanoma
OVCAR-5 ovarian = system: OVCAR-5 ovarian
A498 renal = system: A498 renal
DU-145 prostate = system: DU-145 prostate
K-562 leukemia = system: K-562 leukemia
HOP-92 NSCLC = system: HOP-92 NSCLC
EKVX NSCLC = system: EKVX NSCLC
HS 578T breast = system: HS 578T breast
MCF7 breast = system: MCF7 breast
NCI/ADR-RES ovarian = system: NCI/ADR-RES ovarian
MDA-MB-435 = system: MDA-MB-435
SK-MEL-2 melanoma = system: SK-MEL-2 melanoma
HCT-116 colon = system: HCT-116 colon
SF-268 CNS = system: SF-268 CNS
MOLT-4 leukemia = system: MOLT-4 leukemia
HL-60(TB) leukemia = system: HL-60(TB) leukemia
NCI-H460 lung = system: NCI-H460 lung
SF-539 CNS = system: SF-539 CNS
UO-31 renal = system: UO-31 renal
MALME-3M melanoma = system: MALME-3M melanoma
NCI-H23 lung = system: NCI-H23 lung

COc1cc(/C=C/C(=O)c2cc(OC)c(OC)c(OC)c2)ccc1OCc1ccc(F)cc1
GI50 (RXF 393 renal): 3.4 µM
TGI (RXF 393 renal): 49.8 µM
GI50 (CAKI-1 renal): 4.35 µM
TGI (CAKI-1 renal): > 100 µM
GI50 (NCI-H522 lung): 2.31 µM
TGI (NCI-H522 lung): 15.5 µM
GI50 (SW-620 colon): 4.31 µM
TGI (SW-620 colon): > 100 µM
GI50 (NCI-H226 lung): 3.48 µM
TGI (NCI-H226 lung): > 100 µM
GI50 (A549 NSCLC): 3.11 µM
TGI (A549 NSCLC): > 100 µM
GI50 (OVCAR-3 ovarian): 3.84 µM
TGI (OVCAR-3 ovarian): > 100 µM
GI50 (T-47D breast): 3.22 µM
TGI (T-47D breast): > 100 µM
GI50 (RPMI-8226 leukemia): 1.68 µM
TGI (RPMI-8226 leukemia): > 100 µM
GI50 (SF-295 CNS): 3.65 µM
TGI (SF-295 CNS): > 100 µM
GI50 (KM12 colon): 4.95 µM
TGI (KM12 colon): > 100 µM
GI50 (M14 melanoma): 5.74 µM
TGI (M14 melanoma): > 100 µM
GI50 (IGROV1 ovarian): 3.38 µM
TGI (IGROV1 ovarian): > 100 µM
GI50 (SNB-19 CNS): 4 µM
TGI (SNB-19 CNS): > 100 µM
GI50 (TK-10 renal): 16.6 µM
TGI (TK-10 renal): > 100 µM
GI50 (U251 CNS): 3.74 µM
TGI (U251 CNS): > 100 µM
GI50 (OVCAR-8 ovarian): 2.88 µM
TGI (OVCAR-8 ovarian): 16.6 µM
GI50 (SR leukemia): 1.73 µM
TGI (SR leukemia): > 100 µM
GI50 (SK-OV-3 ovarian): 3.61 µM
TGI (SK-OV-3 ovarian): 54.6 µM
GI50 (HT29 colon): 3.43 µM
TGI (HT29 colon): > 100 µM
GI50 (UACC-62 melanoma): 3.15 µM
TGI (UACC-62 melanoma): 52.3 µM
GI50 (BT-549 breast): 3.36 µM
TGI (BT-549 breast): 15.5 µM
GI50 (786-0 renal): 7.22 µM
TGI (786-0 renal): > 100 µM
GI50 (HCC-2998 colon): 2.94 µM
TGI (HCC-2998 colon): 8.17 µM
GI50 (SNB-75 CNS): 2.06 µM
TGI (SNB-75 CNS): 7.48 µM
GI50 (MDA-MB-231 breast): 2.96 µM
TGI (MDA-MB-231 breast): 24.6 µM
GI50 (HCT-15 colon): 2.66 µM
TGI (HCT-15 colon): > 100 µM
GI50 (HOP-62 NSCLC): 3.64 µM
TGI (HOP-62 NSCLC): 37.6 µM
GI50 (OVCAR-4 ovarian): 3.62 µM
TGI (OVCAR-4 ovarian): > 100 µM
GI50 (SK-MEL-5 melanoma): 3.41 µM
TGI (SK-MEL-5 melanoma): 26.3 µM
GI50 (COLO 205 colon): 5.27 µM
TGI (COLO 205 colon): > 100 µM
GI50 (CCRF-CEM leukemia): 3.13 µM
TGI (CCRF-CEM leukemia): > 100 µM
GI50 (PC-3 prostate): 3.67 µM
TGI (PC-3 prostate): > 100 µM
GI50 (UACC-257 melanoma): 3.82 µM
TGI (UACC-257 melanoma): > 100 µM
GI50 (ACHN renal): 4.92 µM
TGI (ACHN renal): > 100 µM
GI50 (SN12C renal): 2.73 µM
TGI (SN12C renal): 15.4 µM
GI50 (SK-MEL-28 melanoma): 6.52 µM
TGI (SK-MEL-28 melanoma): > 100 µM
GI50 (OVCAR-5 ovarian): 3.9 µM
TGI (OVCAR-5 ovarian): > 100 µM
GI50 (A498 renal): 48 µM
TGI (A498 renal): > 100 µM
GI50 (DU-145 prostate): 3.72 µM
TGI (DU-145 prostate): > 100 µM
GI50 (K-562 leukemia): 2.94 µM
TGI (K-562 leukemia): > 100 µM
GI50 (HOP-92 NSCLC): 2.15 µM
TGI (HOP-92 NSCLC): 8.99 µM
GI50 (EKVX NSCLC): 18.4 µM
TGI (EKVX NSCLC): > 100 µM
GI50 (HS 578T breast): 6.03 µM
TGI (HS 578T breast): 84.2 µM
GI50 (MCF7 breast): 2.45 µM
TGI (MCF7 breast): > 100 µM
GI50 (NCI/ADR-RES ovarian): 4.2 µM
TGI (NCI/ADR-RES ovarian): > 100 µM
GI50 (MDA-MB-435): 3.6 µM
TGI (MDA-MB-435): > 100 µM
GI50 (SK-MEL-2 melanoma): 8.57 µM
TGI (SK-MEL-2 melanoma): 64.4 µM
GI50 (HCT-116 colon): 2.85 µM
TGI (HCT-116 colon): > 100 µM
GI50 (SF-268 CNS): 4.8 µM
TGI (SF-268 CNS): > 100 µM
GI50 (MOLT-4 leukemia): 3.14 µM
TGI (MOLT-4 leukemia): > 100 µM
GI50 (HL-60(TB) leukemia): 2.73 µM
TGI (HL-60(TB) leukemia): > 100 µM
GI50 (NCI-H460 lung): 4.56 µM
TGI (NCI-H460 lung): > 100 µM
GI50 (SF-539 CNS): 2.12 µM
TGI (SF-539 CNS): 5.13 µM
GI50 (UO-31 renal): 3.88 µM
TGI (UO-31 renal): > 100 µM
GI50 (MALME-3M melanoma): 6 µM
TGI (MALME-3M melanoma): > 100 µM
GI50 (NCI-H23 lung): 5.29 µM
TGI (NCI-H23 lung): > 100 µM
